One assay addresses T1, SMBS on rat lung membranes (Rattus norvegicus, UniProt A0A8I6A822).
T1 construct: from tissue; host or cells: rat lung membranes (SD male rats)
As to the kind of experiment: Receptor binding of the compound in rat lung membranes ([125I]-iodo-cyanopindolol ligand binding assay; Experiments 1 and 4). The settings on record: Table 43; concentration tested 30 μM; rat lung membranes; Experiment 4; read-out: Binding Activity (30 μM). The method, then: Evaluation Test on Receptor Binding of the Compound in Rat Lung Membranes:
This experiment was carried out according to the method disclosed in Sugasawa et al., (Sugasawa, T. et al., J. Biol. Chem., 272, 21244-21252(1997)).
Preparation of Rat Lung Membranes
The air tube and blood vessels were removed from the lung excised from SD male rats (7-weeks old when used, purchased from Charles River Japan, Inc.), and the lung was chopped, and washed with ice-cold tris-saline buffer (10 mM Tris-HCl, 154 mM sodium chloride, pH 7.4). The lung was homogenized by PHYSCOTRON (maximum speed: 1 minute) in a buffer for homogenization (tris-saline buffer containing 1 mM ethylenediaminetetraacetate (EDTA), 1 mM 4-(2-aminoethyl)-benzenesulfonyl fluoride (AEBSF), 5 μg/ml aprotinin, 5 μg/ml leupeptin) under ice-cooling. The mixture was centrifuged at a low speed (1500×g, 20 minutes, 4° C.), and the supernatant was super-centrifuged (100000×g, 20 minutes, 4° C.). The pellets thus obtained were suspended in tris-saline buffer, and kept at −80° C. The concentration of protein was measured by a Protein Assay Kit manufactured by Bio-Rad using bovine serum albumin (BSA) as standard.
To each well of a protein-non-adsorbent round-bottom 96-well assay plate (purchased from IWAKI GLASS CO., LTD.) was added tris-saline buffer (200 μl) containing 1 nM [^125I]-iodo-cyanopindolol (purchased from Amarsham), 10 μM serotonin, 20 μM dl-propranol, 10 μM phentoramine, 1.1 mM ascorbic acid and 100 μg lung membranes, and the mixture was mixed well by pipetting, and the plate was incubated at 37° C. for 30 minutes. Test compounds were dissolved in 100% dimethylsulfoxide, and added to the plate in an amount of 2 μl (final concentration of DMSO: 1%). In order to obtain non-specific binding, L-threo-3-(3,4-dihydroxyphenyl)-N-[3-(4-fluorophenyl)propyl]-serinepyrrolidinamide was added at a final concentration of 100 μM instead of test compound. During this period, 0.3% polyethyleneimine (PEI)/tris-saline buffer (100 μl) was added to a multiscreen plate (96-well B-glassfiber, milipore Cat. No. MAFB NOB10) and the plate was incubated for more than 30 minutes. The plate was washed by vacuum filtration (by adding ice-cold tris-saline buffer (200 μl) and then vacuum filtration), and the reaction solution on the 96-well assay plate was washed by vacuum filtration onto the multiscreen plate for four times. The B-glassfiber paper filter at the bottom of the multiscreen plate was punched out, and the γ-ray amount of [^125I]-iodo-cyanopindolol being trapped onto the paper filter was measured as binding amount. The binding amount in the presence of DMSO (final concentration: 1%) was regarded as total binding, and the binding in the presence of L-threo-3-(3,4-dihydroxyphenyl) -N-[3-(4-fluorophenyl)-propyl]serinepyrrolidinamide was regarded as non-specific binding. The value which is calculated by subtracting non-specific binding from total binding is specific binding. The binding activity of the compound can be calculated by the following equation, and expressed in a ratio of inhibiting the specific binding of [^125I]-iodo-cyanopindorol to SMBS on rat lung membranes.
In the same manner to in Experiment 1, the receptor binding assay was carried out on the present compounds by using the rat lung membranes.
T1 sequence (A0A8I6A822 27-587): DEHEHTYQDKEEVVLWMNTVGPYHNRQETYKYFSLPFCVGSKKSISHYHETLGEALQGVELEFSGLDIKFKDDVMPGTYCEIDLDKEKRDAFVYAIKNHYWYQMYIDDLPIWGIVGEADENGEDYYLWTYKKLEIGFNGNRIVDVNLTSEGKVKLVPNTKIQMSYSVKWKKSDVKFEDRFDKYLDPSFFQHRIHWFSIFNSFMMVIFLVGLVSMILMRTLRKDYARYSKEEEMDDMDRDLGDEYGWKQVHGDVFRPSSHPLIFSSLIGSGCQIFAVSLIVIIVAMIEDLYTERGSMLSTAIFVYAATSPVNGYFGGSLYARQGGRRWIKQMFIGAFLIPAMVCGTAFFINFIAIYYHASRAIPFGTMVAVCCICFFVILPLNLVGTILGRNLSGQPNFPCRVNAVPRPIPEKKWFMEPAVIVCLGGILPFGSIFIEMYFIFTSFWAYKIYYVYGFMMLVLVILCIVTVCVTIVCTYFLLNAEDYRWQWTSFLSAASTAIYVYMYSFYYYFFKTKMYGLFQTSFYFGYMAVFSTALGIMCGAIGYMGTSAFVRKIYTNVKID
As to `CCN(CC)C(=O)CNCCCn1c(-c2ccc(N3CCOCC3)cc2)cs/c1=N\c1ccc(F)cc1` [Example 343], the inhibition at 30 µM is 107%.
The same measure, in the same setting: for `O=C(CNCCCn1c(-c2ccc(N3CCOCC3)cc2)cs/c1=N\c1ccc(F)cc1)NCCO` [Example 344] the value was 101%.
Still for that read-out and setting: next, `CN(C)CCNC(=O)NCCCn1c(-c2ccc(N3CCOCC3)cc2)csc1=Nc1ccc(F)cc1` [Example 349, N-[2-(Dimethylamino)ethyl]-N′-{3-[2-[(4-fluorophenyl)imino]-4-[4-(morpholino)phenyl]thiazol-3(2H)-yl]propyl}urea]: 100%; `COCCNC(=O)NCCCn1c(-c2ccc(N3CCOCC3)cc2)cs/c1=N\c1ccc(F)cc1` [Example 355]: 89%; `O=C(CN1CCCC1)NCCCn1c(-c2ccc(N3CCOCC3)cc2)csc1=Nc1ccc(F)cc1` [Example 357, N-{3-[2-[(4-Fluorophenyl)imino]-4-[4-(morpholino)phenyl]thiazol-3(2H)-yl]propyl}-2-(1-pyrrolidinyl)acetamide]: 86%.
The same measure, in the same setting: next, `O=C(CNc1ccccc1)NCCCn1c(-c2ccc(N3CCOCC3)cc2)cs/c1=N\c1ccc(F)cc1` [Example 359]: 82%; `CN(C)CC(=O)NCCCn1c(-c2ccc(N3CCOCC3)cc2)cs/c1=N\c1ccc(F)cc1` [Example 361]: 88%; `COc1ccc(C/N=c2\scc(-c3ccc(OC(F)(F)F)cc3)n2CCCN)c(OC)c1` [Example 362, 3-[2-[(2,4-Dimethoxybenzyl)imino]-4-[4-(trifluoromethoxy)phenyl]-1,3-thiazol-3(2H)-yl]-1-propanamine]: 117%.
Consider `COc1ccc(C/N=c2\scc(-c3ccc(OC(F)(F)F)cc3)n2CCCNC(C)=O)c(OC)c1` [Example 373, N-{3-[2-[(2,4-dimethoxybenzyl)imino]-4-[4-(trifluoromethoxy)phenyl]-1,3-thiazol-3(2H)-yl]propyl}acetamide], for which the inhibition at 30 µM is 90%.
Same read-out and setting: next, `COCC(=O)NCCCn1c(-c2ccc(OC(F)(F)F)cc2)cs/c1=N\Cc1ccc(OC)cc1OC` [Example 383, N-{3-[2-[(2,4-Dimethoxybenzyl)imino]-4-[4-(trifluoromethoxy)phenyl]-1,3-thiazol-3(2H)-yl]propyl}-2-methoxyacetamide]: 84%; `O=C(CN1CCCC1)NCCCn1c(-c2ccc(OC(F)(F)F)cc2)cs/c1=N\Cc1ccc(Cl)cc1` [Example 384, N-{3-[2-[(4-Chlorobenzyl)imino]-4-[4-(trifluoromethoxy)phenyl]-1,3-thiazol-3(2H)-yl]propyl}-2-(1-pyrrolidinyl)acetamide]: 107%.
On the same count and under the same terms, next, `CCNC(=O)NCCCn1c(-c2ccc(F)cc2)cs/c1=N\Cc1ccc(Cl)cc1OC` [Example 402, N-{3-[2-[(4-Chloro-2-methoxybenzyl)imino]-4-(4-fluorophenyl)-1,3-thiazol-3(2H)-yl]propyl}-N′-ethylurea]: 79%.
Same read-out and setting: for `COCCNC(=O)NCCCn1c(-c2ccc(OC(F)(F)F)cc2)cs/c1=N\Cc1ccc(Cl)cc1` [Example 409, N-{3-[2-[(4-Chlorobenzyl)imino]-4-[4-(trifluoromethoxy)phenyl]-1,3-thiazol-3(2H)-yl]propyl}-N′-(2-methoxyethyl)urea] the value was 89%.
`COCCNCCCn1c(-c2ccc(F)cc2)cs/c1=N\Cc1ccc(Cl)cc1OC` [Example 411, 3-[2-[(4-Chloro-2-methoxybenzyl)imino]-4-(4-fluorophenyl)-1,3-thiazol-3(2H)-yl]-(2-methoxyethyl)-1-propanamine]: the inhibition at 30 µM came to 118%.
Take `CCNC(=O)CNCCCn1c(-c2ccc(OC(F)(F)F)cc2)cs/c1=N\Cc1ccc(Cl)cc1` [Example 417, N^2-{3-[2-[(4-Chlorobenzyl)imino]-4-[4-(trifluoromethoxy)phenyl]-1,3-thiazol-3(2H)-yl]propyl}-N^1-ethylglycinamide]: the inhibition at 30 µM came to 113%.

Still in this assay, the particulars now being: Table 44; concentration tested 30 μM; rat lung membranes; Experiment 4; read-out: Binding Activity (30 μM).
Take `CCOC(=O)NCCCn1c(-c2ccc(OC(F)(F)F)cc2)cs/c1=N\Cc1ccc(Cl)cc1` [Example 368]: the inhibition at 30 µM came to 100%.
Still for that read-out and setting: next, `O=C(NCCCn1c(-c2ccc(OC(F)(F)F)cc2)cs/c1=N\Cc1ccc(Cl)cc1)Nc1ccc(F)cc1` [Example 393]: 80%; `CCNC(=O)NCCCn1c(-c2ccc(OC)cc2)cs/c1=N\CCc1ccncc1` [Example 398]: 37%.
Turning to `CN(C)C(=O)NCCCn1c(-c2ccc(OC(F)(F)F)cc2)cs/c1=N\Cc1ccc(Cl)cc1` [Example 404], the inhibition at 30 µM turned out to be 109%.
The same measure, in the same setting: next, `O=C(NCCCn1c(-c2ccc(OC(F)(F)F)cc2)cs/c1=N\Cc1ccc(Cl)cc1)N1CCOCC1` [Example 405]: 115%.
Same read-out and setting: next, `O=C(NCCCn1c(-c2ccc(OC(F)(F)F)cc2)cs/c1=N\Cc1ccc(Cl)cc1)NCCN1CCCC1` [Example 408]: 121%; `COc1ccc(C/N=c2\scc(-c3ccc(OC(F)(F)F)cc3)n2CCCNCC(F)(F)F)c(OC)c1` [Example 413]: 96%; `O=C(CNCCCn1c(-c2ccc(OC(F)(F)F)cc2)cs/c1=N\Cc1ccc(Cl)cc1)NCCO` [Example 423]: 113%.
For the compound `O=C(O)CNCCCn1c(-c2ccc(OC(F)(F)F)cc2)cs/c1=N\Cc1ccc(Cl)cc1` [Example 427, N-{3-[2-[(4-Chlorobenzyl)imino]-4-[4-(trifluoromethoxy)phenyl]-1,3-thiazol-3(2H)-yl]propyl}glycine], the inhibition at 30 µM is 100%.
The same measure, in the same setting: next, `O=C(O)CCNCCCn1c(-c2ccc(OC(F)(F)F)cc2)cs/c1=N\Cc1ccc(Cl)cc1` [Example 428]: 103%; `COc1cc(Cl)ccc1C/N=c1\scc(-c2ccc(F)cc2)n1CCCNC(=N)N` [Example 429, N′-{3-[2-[(4-Chloro-2-methoxybenzyl)imino]-4-(4-fluorophenyl)-1,3-thiazol-3(2H)-yl]propyl}guanidine]: 103%.
On the same count and under the same terms, next, `CCS(=O)(=O)NCCCn1c(-c2ccc(OC(F)(F)F)cc2)cs/c1=N\Cc1ccc(Cl)cc1` [Example 430, N′-{3-[2-[(4-Chlorobenzyl)imino]-4-[4-(trifluoromethoxy)phenyl]-1,3-thiazol-3(2H)-yl]propyl}ethanesulfonamide]: 89%; `COc1ccc(C(=O)/N=c2\scc(C(=O)Nc3ccc(Cl)cc3)n2CCCN)c(OC)c1` [Example 431, 3-(3-Aminopropyl)-N-(4-chlorophenyl)-2-[(2,4-dimethoxybenzoyl)imino]-2,3-dihydro-1,3-thiazol-4-carboxamide]: 95%; `COc1ccc(C(=O)/N=c2\scc(C(=O)N3CCc4ccccc4C3)n2CCCN)c(OC)c1` [Example 432]: 42%.
For the compound `COc1ccc(C(=O)/N=c2\scc(C(=O)NCCCCc3ccccc3)n2CCCN)c(OC)c1` [Example 435], the inhibition at 30 µM amounted to 93%.
The same measure, in the same setting: for `COc1ccc(C(=O)/N=c2\scc(-c3ccc(OC(F)(F)F)cc3)n2CCCN)c(OC)c1` [Example 437] the value was 106%; for `NCCCn1c(-c2ccc(OC(F)(F)F)cc2)cs/c1=N\C(=O)c1ccco1` [Example 441], 61%; for `CCOC(=O)NCCCn1c(-c2ccc(OC(F)(F)F)cc2)cs/c1=N\C(=O)c1ccc(OC)cc1OC` [Example 444], 99%.
Still for that read-out and setting: for `CCCC(=O)NCCCn1c(-c2ccc(OC(F)(F)F)cc2)cs/c1=N\C(=O)c1ccc(OC)cc1OC` [Example 447] the value was 89%; for `CCCCCC(=O)NCCCn1c(-c2ccc(OC(F)(F)F)cc2)cs/c1=N\C(=O)c1ccc(OC)cc1OC` [Example 448], 77%.

Staying with this assay, now noted: read-out: Binding Activity (30 μM).
Consider `O=C(NCCCl)NCCCn1c(-c2ccc(OC(F)(F)F)cc2)cs/c1=N\Cc1ccc(Cl)cc1` [Example 390], for which the inhibition at 30 µM was 120%.

These data come from patent US7396842B2, “Five-membered cyclic compounds” (Dianippon Sumitomo Pharma Co., Ltd., priority 2002, dated 2008).
